Data from PMC3850926, “Evaluation of the adverse event profile and pharmacodynamics of toceranib phosphate administered to dogs with solid tumors at doses below the maximum tolerated dose” (BMC Veterinary Research, 2013).
Entries after “also recorded” stand apart in the source; their conditions may differ. Like-named read-outs stand apart in the source and are kept apart here.

Tests used:
KIT = settings: dogs with MCT, 8 hours post drug administration; cited from earlier work
[1] = cited from earlier work
VEGF = assay: Plasma VEGF concentrations (Canine VEGF Quantikine ELISA); type: in vivo, dog
Experimental: (§1) A total of 40 dogs were enrolled in this study, with dogs initially assigned to toceranib at 2.5 mg/kg or 2.75 mg/kg EOD. All dogs were placed on famotidine at 0.5-1 mg/kg once per day at study initiation and owners were instructed to administer the toceranib in the morning with food. Physical examination, routine bloodwork (CBC, biochemistry profile) and blood sampling for assessment of toceranib and VEGF plasma concentrations was performed pretreatment and on days 0, 7, 14 and 30 of treatment. […] Owners of dogs that experienced CR, PR, or SD at study day 30 were offered the option of continuing toceranib administration for an additional 6 months (provided at no cost), although patient data was not officially captured beyond day 30.
(§2) Blood was collected into EDTA tubes and centrifuged at 3000 × g for 10 minutes. Plasma was then collected and split evenly into two portions in cryovials, then stored at -80°C until analysis was performed for toceranib and VEGF concentrations.
A solid phase sandwich ELISA was used to measure plasma concentrations of VEGF. […] All standards and samples were performed in duplicate and the absorbance reading at […] was subtracted from the absorbance reading at […].
VEGF concentrations were analyzed in terms of percent change from baseline. […]

dogs with MCT = settings: dog, in vivo, cited from earlier work
[2] = tested on: target receptor tyrosine kinases; design: method as in PMID 12538485; settings: established in rodent studies; cited from earlier work
solid tumors = assay: Tumor response assessment (RECIST v.1.1); type: in vivo, dog
Experimental: as §1
Tumor assessments were performed on days 0, 7, 14 and 30 of study. Tumor assessment was performed using caliper measurement with digital photography documentation, thoracic radiography, ultrasonography, or spiral computerized tomography (CT) as indicated. Determination of antitumor efficacy was based on objective tumor assessments made according to the RECIST v.1.1 guidelines using unidimensional measurements. Response to therapy was defined as complete response (CR, resolution of all target and non-target lesions, no new lesions), partial response (PR, at least 30% decrease in the longest diameter of target lesions, no progression of non-target lesions, and no new lesions), stable disease (SD, decrease in target lesions of less than 30% or increase of target lesions less than 20%, no progression of non-target lesions, and no new lesions) or progressive disease (PD, greater than 20% increase in target lesions, progression of non-target, new lesions). Dogs were defined as experiencing clinical benefit if they had CR, PR, or SD.

[3] = tested on: AGASACA, thyroid carcinomas, head and neck carcinomas, nasal tumors; design: method as in PMID 22236194; settings: median dose 2.8 mg/kg, cited from earlier work
[4] = Toceranib plasma concentrations (LC-MS/MS) in dogs with solid tumors; type: in vivo, dog; settings: for Cmax: dog, plasma, oral
Experimental: as §1, §2
Toceranib was quantitated in plasma samples using the method previously described. Briefly, 50 μL aliquots of plasma were fortified with an internal standard (IS), a deuterated toceranib analog. Toceranib and the IS were extracted from the plasma by protein precipitation using acetonitrile. The analyte and IS are light sensitive and undergo photoisomerization when exposed to light. Therefore, the 96-well plates were protected from light by wrapping the bottom and sides with foil and securing with adhesive tape. Calibration standards (1 to 1000 ng/mL) and quality control (QC) samples were prepared with separate weighing of toceranib reference material (Pfizer, Kalamazoo, MI, 98.1% purity). Standard and QC solutions were prepared by serially diluting a stock solution (100 μg/mL in methanol) into control canine plasma so that no standard or QC sample contained more that 1% methanol. Study samples were analyzed as single replicates.
The prepared samples were injected onto a Zorbax StableBond CN column and elution of toceranib and the IS accomplished with an acetonitrile:15 mM ammonium formate solution (pH 3.25) 30/70 v/v mobile phase with a 80/20 v/v rinse for 2.3 minutes at 5 minutes after each injection. Detection was accomplished using MS/MS using a Sciex 4000 triple-quadrupole mass spectrometer with Turboionspray ionization source (MDS Sciex, Toronto, Canada). Transition ions of m/z 397.2 → 283.2 for toceranib and 401.3 → 283.2 for the IS were used. The standard curves were generated using peak area ratios of toceranib to the IS and a 1/concentration^2 weighted quadratic regression. Toceranib concentrations were determined by interpolation over the quantitation range of 1.00 ng/mL to 1000 ng/mL.

## Cc1[nH]c(/C=C2\C(=O)Nc3ccc(F)cc32)c(C)c1C(=O)NCCN1CCCC1 [toceranib, Toceranib phosphate]
KIT
  lowest plasma concentration with intratumoral target modulation (downregulation of KIT and/or ERK phosphorylation): 30 ng/mL
[1]; healthy beagle dogs
  dose proportionality of Cmax: proportional to doses ranging from 2.0 to 6.0 mg/kg
[1]; previous studies
  time of maximum drug concentration (Tmax): 5.3 to 9.3 h
[1]; prior studies
  time of Cmax post drug administration: 6 to 8 h
VEGF; 8 hours post dosing, days 0, 7, 14, 30, p < 0.001
  change in plasma VEGF concentrations over the 30 day treatment period: increase significantly; also recorded: increased over time
VEGF; linear mixed models
  association of change in VEGF with Cmax and Tmax: associated with Cmax (p < 0.001), but not Tmax (p = 0.74)
Dogs with MCT; 3.25 mg/kg
  dogs with dose changed (drug holiday and/or dose reduction): 48.3%
Dogs with MCT
  dogs that had a dose reduction due to AEs: approximately 20%
[2]
  plasma concentration threshold for receptor (target) inhibition in vivo: 40 ng/mL
Solid tumors; 35 of the 40 dogs
  average time dogs remained on toceranib after day 30: 16.7 weeks
Solid tumors; Nasal carcinoma, N 5
  PD (number of dogs): 2
Solid tumors; Salivary gland adenocarcinoma, N 1
  PR (number of dogs): 1
Solid tumors; Soft tissue sarcoma, N 7
  PD (number of dogs): 2
Solid tumors; Squamous cell carcinoma, N 4
  PR (number of dogs): 2
Solid tumors; Thyroid carcinoma, N 7
  PR (number of dogs): 2
Solid tumors; over 30 days
  clinical benefit (number of dogs): 36/40
Solid tumors; over 30 days, 40 dogs
  PD (number of dogs), all tumor types: 4 dogs
  PD (percent of dogs): 10%
  PR (number of dogs), all tumor types: 5/40
  PR (percent of dogs): 12.5%
  overall clinical benefit rate (CR + PR + SD): 90%
Solid tumors; thyroid carcinoma
  dogs that transitioned from SD to PR after day 30: one
Solid tumors; two SCC and one salivary gland adenocarcinoma
  dogs that transitioned to CR after day 30: 3 dogs
[3]
  clinical benefit rate (CR + PR + SD): exceeding 80%
[3]; varied by tumor type
  objective response rates: 25-75%
[4]; EOD regimen, levels out by day 30
  course of presumed Cmax plasma concentration: increased gradually in most dogs over the first 2 weeks of dosing
[4]; day 30
  dogs with Cmax at 12 hours (number): 12 dogs
[4]; day 30, the 12 dogs with Cmax at 12 hours
  reported Cmax as percent of the 12 hour concentration: 51% to 98%
[4]; all dose ranges above 2.4 mg/kg, days 0, 7, 14, 30, read-out: median Cmax
  Cmax: > 40 ng/mL
[4]; dose ranges 2.4-2.9 mg/kg EOD, by day 30, read-out: mean presumed Cmax
  Cmax: 100 to 200 ng/mL
[4]; dogs dosed 2.4-2.9 mg/kg EOD
  Median plasma concentration measured at 6 or 8 hours, level after first two weeks: 100 to 120 ng/mL
[4]; dogs dosed 2.4-2.9 mg/kg, each time point
  difference among dosing groups in 6 or 8 hour drug concentrations (presumed Cmax): no significant difference
[4]; dogs dosed at 2.30-2.39 mg/kg (3 dogs)
  plasma drug concentration relative to the other dose groups: lower concentrations of drug at all time points
[4]; dogs with solid tumors, 2.4-2.9 mg/kg every other day
  average 6–8 hr plasma concentration: 100 to 120 ng/mL
